In patent US5153352A, “Process for preparation of intermediates of carbocyclic nucleoside analogs” (priority 1990, dated 1992):
Values after ≈ are worked out from the molar mass of the structure shown. Values joined by “and” are separate entries in the source; they are usually repeats but may differ in a detail not shown here. Equal values may be shown once. Where a name gives a salt, the structure may show the parent alone.

Legend:
[1] = system: P388D1: Lymphocytic Leukemia; experiment: cytotoxic activity against cultured tumor cells, P388-D1; assay type: cell-based; details: Mus musculus, P388D1, 72 h; P388-D1, 3 days, MTT
[2] = system: HCT8: Adenocarcinoma, ileocecal; experiment: cytotoxic activity against cultured tumor cells, HCT-8; assay type: cell-based; details: Homo sapiens, 72 h; HCT-8, 3 days, MTT
[3] = system: A549: Lung carcinoma; experiment: cytotoxic activity against cultured tumor cells, A549; assay type: cell-based; details: Homo sapiens, 72 h; A549, 3 days, MTT
[4] = drug cytotoxicity in Vero cells (CPE-inhibition assay); details: monkey, vero cells, MTC (minimum drug concentration causing any cytotoxicity), Vero
[5] = system: Vero cells; experiment: as above; details: Vero
[6] = system: Herpes simplex type 1 (HSV-1) strain E-377; experiment: CPE-inhibition assay, HSV-1 strain E-377 in Vero cells; details: for TI (Therapeutic Index, MTC/ID50) / VR (Virus Rating): HSV-1 (E-377), Vero; for EC50: Human alphaherpesvirus 1, Vero, read-out: ID50 (minimum drug concentration that inhibited the CPE by 50%), HSV-1 (E-377), Vero; for VR (Virus Rating): >1.0 definite, 0.5-0.9 marginal to moderate, <0.5 no significant activity
[7] = system: Herpes simplex type 2 (HSV-2) strain MS; experiment: CPE-inhibition assay, HSV-2 strain MS in Vero cells; details: for TI (Therapeutic Index, MTC/ID50) / VR (Virus Rating): HSV-2 (MS), Vero; for EC50: Human alphaherpesvirus 2, Vero, read-out: ID50 (minimum drug concentration that inhibited the CPE by 50%), HSV-2 (MS), Vero; for VR (Virus Rating): >1.0 definite, 0.5-0.9 marginal to moderate, <0.5 no significant activity
[8] = system: Human Immunodeficiency Virus (HIV-1); experiment: anti-HIV-1 protection of ATH8 cells (method of Mitsuya and Broder); assay type: cell-based; details: Human immunodeficiency virus 1, ATH-8, HIV-1, ATH8 cells, read-out: Protective Effect
Excerpt: The method of Mitsuya and Broder (AIDS: Modern Concepts and Therapeutic Challenges; Broder, S. ED.; Marcel Dekker, Inc.; New York, 1987; Chapter 18) was used to determine the in vitro anti-HIV-1 and anti-HIV-2 activity in ATH8 cells of some compounds of the invention. The results of the test are expressed as the percentage of ATH8 cells that were protected from the cytopathogenic effects of HIV at various concentrations of the compound of the invention.

[9] = cytotoxicity in ATH8 cells (method of Mitsuya and Broder); assay type: cell-based; details: human, HIV-1 experiment
Excerpt: The method of Mitsuya and Broder (AIDS: Modern Concepts and Therapeutic Challenges; Broder, S. ED.; Marcel Dekker, Inc.; New York, 1987; Chapter 18) was used to determine the in vitro anti-HIV-1 and anti-HIV-2 activity in ATH8 cells of some compounds of the invention. […]

[10] = system: HSV-1(E-377); experiment: plaque reduction, HSV-1(E-377) in Vero cells; assay type: cell-based, Herpes simplex virus type 1; details: Human alphaherpesvirus 1, plaque reduction 50%, read-out: MIC50
Protocol: (§1) After the adsorption period, the infected cell monolayers were treated in duplicate with serial dilutions of the test compound. Duplicate cell controls containing medium alone and virus controls containing medium and virus were run simultaneously with the test compound. […] Plaques visible to the unaided eye were counted and the mean number of plaques in the duplicate wells for each compound concentration tested and for the untreated, virus infected controls were determined.

[11] = system: HSV-1(123); experiment: plaque reduction, HSV-1(123) in Vero cells; assay type: cell-based, Herpes simplex virus type 1; details: Human alphaherpesvirus 1, plaque reduction 50%, read-out: MIC50
Protocol: as §1

[12] = system: HSV-2; experiment: plaque reduction, HSV-2 in Vero cells; assay type: cell-based, Herpes simplex virus type 2; details: Human alphaherpesvirus 2; HSV-2, Vero, plaque reduction 50%; read-out: MIC50
Protocol: as §1

[13] = MTT cytotoxicity assay in MRC5 cells; assay type: cell-based; details: human
Protocol: (§2) Human diploid embryonic lung (MRC5) cells were grown in 35 mm wells of 6-well tissue culture plates. Subconfluent cell monolayers were rinsed with phosphate buffered saline (PBS) and were exposed to 0.5 ml/well of HCMV (strain AD169) suspension for 1.5 hours at 37° C. The virus suspension was diluted in MEM+2% fetal bovine serum (FBS) to yield a multiplicity of infection (MOI) of approximately 0.1 plaque forming units (PFU)/cell. Following the virus adsorption period, the inocula were removed and infected cell layers were rinsed with PBS. Aliquots (2.0 ml) of each test drug concentration (dissolved in MEM supplemented with 2% FBS) were dispensed into triplicate cell cultures: two virus infected cultures and one uninfected cytotoxicity control culture (exposed to medium without virus for 1.5 hours). Untreated virus infected control cultures and untreated, uninfected cell control cultures were fed with medium alone.
(§3) All cell culture fluids were replaced with fresh drug and medium 48 hours postinfection (p.i.).
Drug cytotoxicity was determined quantitatively by a method based on the reduction of the tetrazolium salt, 3-(4,5-dimethyl-thiazol-2-yl)-2,5-diphenyl tetrazolium bromide (MTT) by mitochondrial enzymes of viable host cells to MTT formazan (T. Mosmann, 1983). Drug cytotoxicity controls and cell controls were treated with MTT (dissolved in culture medium) followed by 20% SDS (in 0.02 N HCl) to dissolve the crystals of MTT formazan. The blue color of the MTT formazan was measured spectrophotometrically at 570 nm. Drug cytotoxicity was determined by comparing the absorbance (O.D.) of each drug cytotoxicity control with the mean O.D. of the cell control cultures and expressed as percent of control.

[14] = system: Human Cytomegalovirus (HCMV); experiment: HCMV virus yield reduction assay in MRC5 cells; assay type: cell-based, Human cytomegalovirus (strain AD169)
Protocol: as §2, §3
On Day 6 p.i., the cell layers were examined microscopically for cytopathogenic effect (CPE) and drug cytotoxicity. The test and virus control cultures were then harvested by subjecting the cell layers to one cycle of freeze-thawing.
The harvested test and virus control samples were thawed and the infectious virus yield was determined by plaque assay in MRC5 cells grown in 12-well cluster plates. Inhibition of HCMV replication by each test compound was determined by comparing the progeny virus yields in the drug-treated cultures with the progeny virus yield in the untreated, virus infected control cultures.

EC50 [6] [µg/mL]	EC50 [7] [µg/mL]	Structure (SMILES)	MCC ([4]; HSV-1 (E-377) experiment) [µg/mL]	MCC ([4]; HSV-2 (MS) experiment) [µg/mL]	TI (Therapeutic Index, MTC/ID50) [6]	VR (Virus Rating) [6]	TI (Therapeutic Index, MTC/ID50) [7]	VR (Virus Rating) [7]	other results
83 (≈ 293 µM)	179 (≈ 631 µM)	Nc1nc(Cl)c2ncn(C3CC(CO)C3CO)c2n1 (centres unmarked) [Example 1H, 3-(2'-Amino-6'-chloro-9'H-purin-9'-yl)-1,2-bis(hydroxymethyl)cyclobutane]	320	320	–	–	–	–	MTC (minimum drug concentration causing any cytotoxicity) ([5]; HSV-1 (E-377) experiment): 320 µg/mL; MTC (minimum drug concentration causing any cytotoxicity) ([5]; HSV-2 (MS) experiment): 320 µg/mL; TI (Therapeutic Index, MTC/ID50) ([6]; listed as 1.5H): 3.9 and 3.6; TI (Therapeutic Index, MTC/ID50) ([7]; listed as 1.5H): 1.8 and 1.5
10.1 (≈ 44.7 µM)	50.5 (≈ 224 µM)	Nc1ccn(C2CC(CO)C2CO)c(=O)n1 (centres unmarked) [Example 3, 1-(2',3'-Bis(hydroxymethyl)cyclobutyl)cytosine]	320	320	31.8	3.6	6.34	2.0	–
100 (≈ 291 µM)	–	Nc1nc2c(nc(Br)n2C2CC(CO)C2CO)c(=O)[nH]1 (centres unmarked) [Example 23]	> 320	> 320	3.2	1.7	–	0.7	–
31.7 (≈ 120 µM)	71.8 (≈ 272 µM)	Nc1nc(N)c2ncn(C3CC(CO)C3CO)c2n1 (centres unmarked) [Example 6, 3-(2',6'-Diamino 9'H-purin-9'-yl)-1,2-bis(hydroxymethyl)cyclobutane]	320	320	10.1	2.4	4.5	1.6	inhibition at 1 µM ([8]; 1 uM): 21%; inhibition at 10 µM ([8]; 10 uM): 48%; inhibition at 100 µM ([8]; 100 uM): 46%; inhibition at 500 µM ([8]; 500 uM): 57%; cytotoxicity at 1 µM ([9]; 1 uM): 0%; cytotoxicity at 10 µM ([9]; 10 uM): 4%; cytotoxicity at 100 µM ([9]; 100 uM): 32%; cytotoxicity at 500 µM ([9]; 500 uM): 38%
271 (≈ 1090 µM)	–	Nc1ncc2ncn(C3CC(CO)C3CO)c2n1 (centres unmarked) [Example 7, 3-(2'-Amino-9'H-purin-9'-yl)-1,2-bis(hydroxymethyl)cyclobutane]	320	–	1.2	0.55	–	–	–
11.1 (≈ 32 µM)	14.9 (≈ 43 µM)	OCC1CC(n2cc(Br)c3c(Cl)ncnc32)C1CO (centres unmarked) [Example 67C]	32	32	2.9	1.2	2.1	0.9	IC50 [1]: 16.4 µg/mL (≈ 47.3 µM); IC50 [2]: 4.3 µg/mL (≈ 12.4 µM); IC50 [3]: 18.4 µg/mL (≈ 53.1 µM)

The next lines start with the compound.

Structure (SMILES)	EC50 [6] [µg/mL]	EC50 [7] [µg/mL]	MCC ([4]; HSV-1 (E-377) experiment) [µg/mL]	MCC ([4]; HSV-2 (MS) experiment) [µg/mL]	TI (Therapeutic Index, MTC/ID50) [6]	VR (Virus Rating) [6]	TI (Therapeutic Index, MTC/ID50) [7]	VR (Virus Rating) [7]	other results
Nc1ncnc2c1c(Br)cn2C1CC(CO)C1CO (centres unmarked) [Example 67F, 4-Amino-9-bromo-7-(2',3'-bis(hydroxymethyl)cyclobutyl)-7H-pyrrolo[2,3-d]pyrimidine]	–	–	–	–	–	–	–	–	IC50 [1]: 5.2 µg/mL (≈ 15.9 µM); IC50 [2]: 5.9 µg/mL (≈ 18 µM); IC50 [3]: 3.1 µg/mL (≈ 9.47 µM)
OCC1CC(n2cnc3c(Cl)ncnc32)C1 (centres unmarked) [Example 8E, 3-(6'-chloro-9'H-purin-9'-yl)cyclobutanemethanol]	–	54.7 (≈ 229 µM)	320	100	–	0.9	1.8	1.35	–
NCC1CC(n2cnc3c(Cl)ncnc32)C1 (centres unmarked) [Example 21, 3-(6'-Chloro-9'H-purin-9'-yl)-aminomethylcyclobutane hydrochloride]	88	75	320	320	3.6	1.0	4.3	1.2	–
Nc1nc2c(ncn2C2CC(CO)C2O)c(=O)[nH]1 (centres unmarked) [Example 42P, 9-(2'-hydroxy-3'-hydroxymethyl-1'-cyclobutyl)guanine]	–	–	–	–	–	–	–	–	EC50 [10]: 1 µg/mL (≈ 3.98 µM); EC50 [11]: 3 µg/mL (≈ 11.9 µM); EC50 [12]: 1 µg/mL (≈ 3.98 µM)
CC(=O)OCC1CC(n2cnc3c(=O)[nH]c(N)nc32)C1COC(C)=O (centres unmarked) [Example 20, 9-(2,'3,'-Bis(acetoxymethyl)cyclobutyl)guanine]	12.1 (≈ 34.6 µM)	15.7 (≈ 44.9 µM)	100	100	8.2	2.2	6.4	1.9	–
OCC1CC(n2ccc3c(Cl)ncnc32)C1CO (centres unmarked) [Example 67B, 4-Chloro-7-(2',3'-bis(hydroxymethyl)cyclobutyl)-7H-pyrrolo[2,3-d]pyrimidine]	–	–	–	–	–	–	–	–	IC50 [1]: 4.9 µg/mL (≈ 18.3 µM); IC50 [2]: 0.63 µg/mL (≈ 2.35 µM); viability ([13]; 10 ug/ml): 86%; viability ([13]; 32 ug/ml): 68%; HCMV yield ([14]; 3.2 ug/ml): 4.9 log10 PFU/ml; HCMV yield ([14]; 10 ug/ml): 4.0 log10 PFU/ml; HCMV yield ([14]; 32 ug/ml): 3.1 log10 PFU/ml; log reduction at 3.2 µg/mL ([14]; Human betaherpesvirus 5, 144 h, 3.2 ug/ml): 0.4; log reduction at 10 µg/mL ([14]; Human betaherpesvirus 5, 144 h, 10 ug/ml): 1.3; log reduction at 32 µg/mL ([14]; Human betaherpesvirus 5, 144 h, 32 ug/ml): 2.2; IC50 [3]: 18.8 µg/mL (≈ 70.2 µM)
